Experiment [1] concerns the target T1, fluorescein-streptavidin (Streptomyces avidinii, UniProt P22629).
T1 construct: purchased Calbiochem-Novabiochem Corp., La Jolla, Calif; 189734
Put plainly: Standard protein-binding assay: fluorescein-streptavidin binding to linker on streptavidin-coated 96-well plates. The note with it: for Fluorescence emission detected (qualitative): linker and fluorescein-labeled protein present. The source says: (§1) Referring to the drawings, and particularly to FIG. 1, generic reactions illustrating two variations of the screening system of the present invention are shown. FIGS. 1a-1d illustrate the generic System 1 reaction wherein a compound comprised of a tether connecting biotin with a chemical compound containing a nitrophenyl group is applied to a streptavidin coated solid phase. The amount of fluorescein-protein complex (c), where the exemplary protein is fluorescein-anti-DNP antibody, bound to the biotin-tether-nitrophenyl complex is characterized by detecting the magnitude of fluorescence emission in each individual well at the completion of the reaction. Similarly, FIG. 1e-1h illustrates the generic System 2 reaction wherein a tether connects 2 biotin groups together and streptavidin is coated on the solid phase. As in the System 1 reaction, the amount of fluorescein-protein complex (g), where the exemplary protein is fluorescein-streptavidin, bound to the biotin-tether-biotin complex is characterized through the detection of fluorescence emissions in each individual well at the completion of the reaction.
In the quantification of the interaction between fluoresceinated-proteins and linkers is characterized by detecting the magnitude of fluorescence emissions in each individual well at the completion of standard protein-binding assay procedures.
(§2) A standard protein-binding assay comprises a multi-step process in which strepeavidin pre-treated 96-well plates are exposed to a solution containing linker followed by exposure to a solution containing fluorescein-labeled protein. The 96-well plates are coated with a commercially available streptavidin solution (cat #BPS00100; Xenopore Corp., Hawthorne, N.J.) and then pre-incubated with 300 μl PBS buffer for 10 minutes at room temperature. To complete the pre-incubation process, the PBS buffer is discarded and the plates are further washed five times with water. Once the plate is sufficiently washed, add to the wells 100 μl of pre-mixed binding buffer containing the desired linker, the preparation of which is as described above. After addition of the linker solution, the plate is incubated at 37° C. for one hour. Upon completion of incubation, the linker solution is discarded and the plate is washed with five changes of water. For the fifth step of the assay process, 100 μl of a premixed reaction solution containing 1 M Tris, 0.5 M NaCl and the fluorescein-labeled proteins are added to selected wells of the plate with bound linker. The fluorescein conjugated proteins, anti-dinitrophenyl antibody (rabbit IgG fraction, cat #A-6423) (anti-DNP) and streptavidin (cat #189734) are commercially available from Molecular Probes, Inc., Eugene, Oreg. and Calbiochem Inc., San Diego, Calif. Upon addition of the protein solutions, the plate is further incubated at 37° C. for one hour. Following the incubation period, the reacting solution in each well is discarded and the wells are washed with five changes of 1 M Tris or 30 changes of water. After this final washing step, 250 μl of elution buffer containing 0.5 mM NaOH, methanol and 20 mM EDTA is added to each well and the plate is read using a Spectra MAX Gemini fluorescein plate reader (Molecular Devices Corp., Sunnyvale, Calif.).
Using the standard protein-binding assay described above, linkers 1-7 are evaluated for their ability to bind fluorescein-streptavidin or fluorescein-anti-DNP. The detection of fluorescence emission beyond that of the control would indicate that the fluorescein labeled protein has bound to the corresponding linker. Lack of fluorescence emission would indicate that either the linker or the fluorescein-bound proteins are absent, or that an improper linker was used. This may be interpreted as meaning that the protein of interest, in this exemplary example streptavidin or anti-DNP, “recognizes” the particular library compound being used in the experiment. […]

Experiment [2] has as its system fluorescein-anti-DNP antibody (rabbit IgG fraction). Briefly: Standard protein-binding assay: fluorescein-anti-DNP binding to linker on streptavidin-coated 96-well plates.
Source text: as §1, §2
Using the standard protein-binding assay described above, linkers 1-7 are evaluated for their ability to bind fluorescein-streptavidin or fluorescein-anti-DNP. The detection of fluorescence emission beyond that of the control would indicate that the fluorescein labeled protein has bound to the corresponding linker. Lack of fluorescence emission would indicate that either the linker or the fluorescein-bound proteins are absent, or that an improper linker was used. This may be interpreted as meaning that the protein of interest, in this exemplary example streptavidin or anti-DNP, “recognizes” the particular library compound being used in the experiment. It is this “recognition” that constitutes the use of these plate libraries as “affinity probes”. While preliminary test results are reported for all of the tested linkers, particular emphasis will be on the data derived from testing of linkers 3 and 5. […]

Results on six molecules are retold here after patent US20020068367A1, “Linker and method for solid phase combinatorial synthesis” (priority 2000, published 2002).

SMILES strings stand for the structures.

T1 sequence (P22629 25-183): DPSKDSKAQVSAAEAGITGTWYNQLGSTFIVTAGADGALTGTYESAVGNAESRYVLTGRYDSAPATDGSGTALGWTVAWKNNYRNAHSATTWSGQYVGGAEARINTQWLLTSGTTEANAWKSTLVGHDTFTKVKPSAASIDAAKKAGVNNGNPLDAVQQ

As to `O=C(CCCCC1SCC2NC(=O)NC21)NCCCOCCOCCOCCCNC(=O)CCCCC1SCC2NC(=O)NC21` (stereo not shown) [Linker 1], the “Fluorescence emission detected (qualitative)” value (shortened to “Fluorescence emission detected”) in experiment [1] is listed as “No fluorescence emission was detected”.

Turning to `NCCCCCNC(=O)CCCC[C@@H]1SC[C@@H]2NC(=O)N[C@@H]21` [Linker B-1596, reference compound], in experiment [1] (pre-linker B-1596 50 nmol replacing linker 3, streptavidin-fluorescein 100 pmol), the “Fluorescence emission” value is on record as “remained at a level similar to reactions where no linker was used”.

For the molecule `O=C(CCCCCNC(=O)CCCCC1SCC2NC(=O)NC21)NCCCCCNC(=O)CCCCCNC(=O)CCCCC1SCC2NC(=O)NC21` (stereo not shown) [Linker 2], the Fluorescence emission in experiment [1] (Linker 2 62.5 nmol, no streptavidin-fluorescein (control)) amounted to 583; in experiment [1] (Linker 2 62.5 nmol, streptavidin-fluorescein 73.5 pmol), 652. The “Fluorescence emission detected” value in experiment [1] was “Fluorescence emissions were detected”.

Turning to `O=C(CCCCCNC(=O)CCCCC1SCC2NC(=O)NC21)NCCCCCNC(=O)CCCCCNc1ccc([N+](=O)[O-])cc1[N+](=O)[O-]` (stereo not shown) [Linker 5], the “Increase in fluorescence emission” value is given as 2.5 fold in experiment [2] (100-fold increase in linker 5 concentration) and “approximately 3 fold” in experiment [2] (linker 5, 10-fold increase in fluorescein-anti-DNP concentration (5.3 to 53 pmol)). Moreover, the Fluorescence emission was 197.62 in experiment [2] ([5] 50.0 nmol, fluorescein-anti-DNP 266 pmol); 176.22 in experiment [2] ([5] 100.0 nmol, fluorescein-anti-DNP 266 pmol); 172.66 in experiment [2] ([5] 200.0 nmol, fluorescein-anti-DNP 266 pmol); 180.98 in experiment [2] ([5] 300.0 nmol, fluorescein-anti-DNP 266 pmol); 225.98 in experiment [2] ([5] 400.0 nmol, fluorescein-anti-DNP 266 pmol); 224.27 in experiment [2] ([5] 500.0 nmol, fluorescein-anti-DNP 266 pmol). For the same molecule, the Fluorescence emission in experiment [2] ([5] 1000.0 nmol, fluorescein-anti-DNP 266 pmol) is reported as 211.7; in experiment [2] ([5] 2000.0 nmol, fluorescein-anti-DNP 266 pmol), 351.7; in experiment [2] ([5] 3000.0 nmol, fluorescein-anti-DNP 266 pmol), 369.58; in experiment [2] ([5] 4000.0 nmol, fluorescein-anti-DNP 266 pmol), 516.83; in experiment [2] ([5] 5000.0 nmol, fluorescein-anti-DNP 266 pmol), 543.9; in experiment [2] (linker 5 50 nmol, [α-DNP] 0 pmol (linker only)) it was 76.392. Moreover, the Fluorescence emission in experiment [2] (linker 5 50 nmol, [α-DNP] 2.6 pmol) is on record as 101.45; in experiment [2] (linker 5 50 nmol, [α-DNP] 5.3 pmol), 109.82; in experiment [2] (linker 5 50 nmol, [α-DNP] 10.0 pmol) it was 129.19; in experiment [2] (linker 5 50 nmol, [α-DNP] 16.0 pmol), 137.9; in experiment [2] (linker 5 50 nmol, [α-DNP] 21.0 pmol), 160.48; in experiment [2] (linker 5 50 nmol, [α-DNP] 27.0 pmol) it was 204.54. The Fluorescence emission in experiment [2] (linker 5 50 nmol, [α-DNP] 53.0 pmol) is given as 306.3; in experiment [2] (linker 5 50 nmol, [α-DNP] 106.0 pmol), 473.57; in experiment [2] (linker 5 50 nmol, [α-DNP] 159.0 pmol) it was 615.29; in experiment [2] (linker 5 50 nmol, [α-DNP] 212.0 pmol), 599.48; in experiment [2] (linker 5 50 nmol, [α-DNP] 266.0 pmol) it was 561.46. In addition, in experiment [2] (generic System 1), the “Effect on binding capacity of fluorescein-anti-DNP” value is recorded as “significantly enhances the binding capacity”.

For `O=C(CCCCC1SCC2NC(=O)NC21)NCCCCCC(=O)NCCCOCCOCCOCCCNC(=O)COCC(=O)NCCCOCCOCCOCCCNC(=O)CCCCC1SCC2NC(=O)NC21` (stereo not shown) [Linker 4], the Fluorescence emission in experiment [1] (Linker 4 5 nmol, no streptavidin-fluorescein (control)) is given as 122; in experiment [1] (Linker 4 5 nmol, streptavidin-fluorescein 100 pmol), 218. In experiment [1], the “Fluorescence emission detected” value is recorded as “Fluorescence emissions were detected”.

As for `O=C(CCCCCNc1ccc([N+](=O)[O-])cc1[N+](=O)[O-])NCCCOCCOCCOCCCNC(=O)COCC(=O)NCCCOCCOCCOCCCNC(=O)CCCCC1SCC2NC(=O)NC21` (stereo not shown) [Linker 7], the Fluorescence emission in experiment [1] (Linker 7 5 nmol, no streptavidin-fluorescein (control)) came to 112; in experiment [1] (Linker 7 5 nmol, streptavidin-fluorescein 266 pmol), 208. In experiment [1], the “Fluorescence emission detected” value is “Fluorescence emissions were detected”.
